Here are results for four molecules from US11458138B2 (Novartis AG, priority 2017, dated 2022).

Test [1] has as its system Phospho-YAP (Ser127) in JHH-5 cells. The test can be described thus: pYAP HTRF Assay (JHH-5 cells). In kind it is cell-based. Conditions: 2 hours. The essentials: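 JHH-5 cells (24000/well) cultured 24 h at 37 °C in William's E with 10% FBS, then exposed to compounds for 2 h at 37 °C. After lysis, pYAP d2/cryptate antibodies incubated 18 h at room temperature; HTRF ratio 665/620 nm ×10000.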
On the technique in general: Time-resolved FRET reads energy transfer from a long-lived donor to a nearby acceptor.

In test [2] the target is LATS1 (Homo sapiens (Human), UniProt O95835). The test can be described thus: LATS1 biochemical assay (Table 1A, Compound Examples 1-290; method in the earlier part).
The subject of test [3] is YAP nuclear translocation in HaCaT cells. The experiment in a line: YAP Translocation Assay (HaCaT Cells). In kind it is cell-based, human. Particulars: Homo sapiens, 24 hours. The essentials: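 HaCaT cells (20,000/well) in DMEM + 10% FBS were plated overnight at 37° C, then exposed to compound for 24 h at 37° C. Cells were fixed with PFA, permeabilized with 0.1% Triton/1.5% BSA and imaged by high-content imaging.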

Test [4] has as its system hepatic progenitor cells (HPC). The test can be described thus: Mouse Hepatic Progenitor Cell Proliferation Assay. Format: cell-based. Conditions: 96 h, mean number of nuclei per organoid, 4 days. Here is the method: The progenitor cells were isolated from C57Bl/6 wild type mice and expanded as described (Lu, W. Y. et al., Nat. Cell Biol. 17, 971-983 (2015)). Cells are stocked in liquid nitrogen, thawed on need and tested using the following protocol: HPC are harvested from their collagen I coated culture vessel (Corning; cat. Number 354487), counted and assessed for viability using a CEDEX cell counter (Roche). After centrifugation, 12 million cells are re-suspended in 2 ml of William's E Medium (Life Technologies; cat. Number 22551089) supplemented with 10% Fetal Bovine Serum (Amimed; cat. Number 2-01F10-I); 1% Penicillin/Streptomycin (Sigma; cat. Number 15140-122); 17.6 mM of NaHCO3 (Sigma; cat. Number S8761); 20 mM HEPES (Gibco; cat. Number H3375); 10 mM Nicotinamide (Sigma; cat. Number N0636-100); 14 mM glucose (Sigma; cat. Number G7021); 1 mM Sodium Pyruvate (Sigma; cat. Number TMS-005); Insulin Transferrin Selenium (ITS) diluted 100 times from stock solution (Sigma; cat. Number 13148); 100 nM Dexamethasone (Sigma; cat. Number D4902); 0.2 mM ascorbic acid (Sigma; cat. Number A7506-100G); 10 ng/ml recombinant human IL-6 (Preprotech; cat. Number 200-06); 10 ng/ml murine HGF (Preprotech; cat. Number 315-23; Lot. 0711S527); 10 ng/ml murine EGF (Preprotech; cat. Number 315-09; Lot. 0217179-1). Six milliliters of Matrigel (Corning; cat. Number 354277; Lot: 5187006) are added to the cell/media solution, thus the final cell concentration is 1.5 million HPC per milliliter, in 25% culture medium and 75% Matrigel. Five microliter (p1) of the cell/Matrigel suspension are transferred in each well of the clear bottom 96 well assay plate (Corning; cat. Number 356649) using the Star dispenser (Hamilton). […]
Plates are imaged with the CV7000 imager (Yokogawa) at a 10 fold magnification using the bright field lamp (lamp power: 10%; exposure time: 20 ms) and the 405 nanometer laser (laser power: 100%; exposure time 200 ms). Four different images per well were acquired and analyzed with the Yokogawa image analysis software (YAS). […]

For test [5], the target named is Human LATS2 kinase domain protein (Homo sapiens (Human), UniProt Q9NRM7). The experiment in a line: LATS2 Biochemical Caliper Assay (Compound Examples 1-290). Conditions: 400 micromolar ATP. Here is the method:
Human LATS2 kinase domain protein was purchased from Carnabio (catalogue number 01-124), which harbors the catalytic domain of amino acids 553-1088, and was co-purified with human His-tagged MOBKL1A (NP_775-739). 5 microlitre of enzyme buffer, 100 nL of compounds and 5 microlitre of localising aid buffer were added into 384-well plates. […] The plates were incubated at 25° C. for 3 hours. 40 microlitre of stop buffer with 25 mM EDTA (NanoSyn) was added to each well to terminate the reaction. Localising aids and products were separated electrophoretically using the microfluidic-based Caliper Labchip 3000 Drug Discovery System (Caliper Life Sciences). Plates were read using blue laser excitation and green fluorescence detection and quantified by fluorescence intensity.

The subject of test [6] is Phospho-YAP (SER127) in HaCaT cells. The experiment in a line: pYAP HTRF Assay (HaCaT Cells). In kind it is cell-based, human. Particulars: Homo sapiens, 2 hours. The essentials:
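HaCaT cells at 5500 cells/well were cultured 48 hours at 37° C, then treated with compound for 2 hours. Phospho-YAP (Ser127) was detected by HTRF after an overnight (20 hrs) room-temperature incubation, read as the 665 nm/620 nm ratio.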

Test [7] relates to rabbit corneal surface. The experiment in a line: Rabbit model of limbal stem cell deficiency, transplantation of expanded LSCs. Particulars: LSCs expanded in medium comprising the compound, combined with GelMA, delivered via contact lens. Format: in vivo. The text has this:
FIG. 7B: Arrow is pointing to absence of keratin 19 staining. […] FIG. 7C: Arrow is pointing to absence of keratin-12 staining. […] FIG. 7D: Arrow is pointing to areas of positive keratin-19 staining.

Test [8] concerns limbal stem cells (LSCs). The test can be described thus: Differentiation of expanded LSCs into corneal epithelium cells (p63alpha / keratin 12). Conditions: transferred to conditions that enable differentiation. Format: cell-based, human. The text has this:
Shown are views where the transition from the p63alpha-positive cell identity to the keratin-12 identity are occurring.
These characteristics can be observed by immunohistochemistry or FACS.

Test [9] concerns the target Human LATS1 kinase domain protein (Homo sapiens (Human), UniProt O95835). The test can be described thus: LATS1 Biochemical Caliper Assay (Compound Examples 291-335). Particulars: Caliper EZ Reader. Here is the method: The LATS1 biochemical Caliper assay was performed as following.
Human LATS1 kinase domain protein was purchased from Carnabio (catalogue number 01-123; lot 15CBS-0098D). Human LATS1, catalytic domain [589-1130(end) amino acids of accession number NP_004681.1] was co-expressed as N-terminal GST-fusion protein (90 kDa) with human His-tagged MOBKL1A [1-216(end) amino acids of accession number NP_775739.1] using baculovirus expression system. GST-LATS1 was purified by using glutathione sepharose chromatography. The substrate (Fluo-SGKtide; Peptide for LATS1; lot BS-41067) has the following sequence: 5-Fluo-Nva-[…]-amide (SEQ ID NO: 27) x TFA and was purchased from Biosyntan.
The reaction is performed in reaction buffer containing 50 mM Hepes pH 7,5; 0.02% Tween20; 0.02% BSA; 1 mM DTT; 10 uM Na3VO4 and 10 mM beta-Glycerolphosphat and fresh added 1 mM MgCl2 and qsp H2O.
The substrate solution (2× conc.) in Reaction Buffer contains 300 μM ATP and 4 μM Fluo-SGKtide.
The kinase solution (2× conc.) in Reaction Buffer contains 20 nM LATS1 kinase. 4.5 μL of 2× conc. Kinase solution, 50 nL of 1.8 mM compounds and 4.5 μL of substrate solution were added into 384-well plates black small volume from Greiner and incubated at 32° C. for 1 hour. 15 μL of stop buffer containing 100 mM Hepes pH 7,5; 5% DMSO; 0.1% Coating reagent; 10 mM EDTA and 0.02% Brij35 and qsp H2O to each well to terminate the reaction.
Substrates and products were electrophoretically separated using the microfluidic-based Caliper EZ Reader System (Caliper Life Sciences) using a 12 sipper chip (cat 760404). The separation takes place in Coating Buffer (idem Stop buffer) and containing 0.1% Coating reagent CR3 and 0.5% coating reagent CR8 (Perkin Elmer).
Plates were read using a LED with an excitation at 488 nm and a detection at 520 nm to 5 quantify the fluorescence intensity.

Each structure is given as a SMILES string.

Sequence of Human LATS2 kinase domain protein (Q9NRM7 553-1088): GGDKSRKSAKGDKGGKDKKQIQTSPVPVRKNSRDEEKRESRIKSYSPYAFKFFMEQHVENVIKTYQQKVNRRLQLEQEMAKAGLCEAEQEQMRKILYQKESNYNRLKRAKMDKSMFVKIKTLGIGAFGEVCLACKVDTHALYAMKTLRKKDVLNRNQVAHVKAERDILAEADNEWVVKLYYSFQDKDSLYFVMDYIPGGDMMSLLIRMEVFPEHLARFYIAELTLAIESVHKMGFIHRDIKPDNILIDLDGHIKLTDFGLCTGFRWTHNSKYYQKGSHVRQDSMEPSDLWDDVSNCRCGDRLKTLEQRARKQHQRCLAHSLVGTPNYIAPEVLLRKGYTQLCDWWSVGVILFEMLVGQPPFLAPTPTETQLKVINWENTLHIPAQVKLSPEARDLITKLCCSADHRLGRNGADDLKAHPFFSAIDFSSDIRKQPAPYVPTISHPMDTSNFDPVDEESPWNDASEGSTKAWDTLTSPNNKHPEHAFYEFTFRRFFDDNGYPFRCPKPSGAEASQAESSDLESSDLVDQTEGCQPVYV
Sequence of Human LATS2 kinase domain protein (Q7L9L4 whole entry partner, the tested form may be a part): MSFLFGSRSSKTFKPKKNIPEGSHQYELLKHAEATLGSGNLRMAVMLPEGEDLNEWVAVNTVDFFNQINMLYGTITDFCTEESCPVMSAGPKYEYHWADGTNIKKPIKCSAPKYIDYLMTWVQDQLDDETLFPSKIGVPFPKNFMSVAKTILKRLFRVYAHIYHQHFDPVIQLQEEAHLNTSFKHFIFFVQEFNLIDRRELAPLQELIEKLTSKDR
Sequence of LATS1 (O95835 whole entry, looked up): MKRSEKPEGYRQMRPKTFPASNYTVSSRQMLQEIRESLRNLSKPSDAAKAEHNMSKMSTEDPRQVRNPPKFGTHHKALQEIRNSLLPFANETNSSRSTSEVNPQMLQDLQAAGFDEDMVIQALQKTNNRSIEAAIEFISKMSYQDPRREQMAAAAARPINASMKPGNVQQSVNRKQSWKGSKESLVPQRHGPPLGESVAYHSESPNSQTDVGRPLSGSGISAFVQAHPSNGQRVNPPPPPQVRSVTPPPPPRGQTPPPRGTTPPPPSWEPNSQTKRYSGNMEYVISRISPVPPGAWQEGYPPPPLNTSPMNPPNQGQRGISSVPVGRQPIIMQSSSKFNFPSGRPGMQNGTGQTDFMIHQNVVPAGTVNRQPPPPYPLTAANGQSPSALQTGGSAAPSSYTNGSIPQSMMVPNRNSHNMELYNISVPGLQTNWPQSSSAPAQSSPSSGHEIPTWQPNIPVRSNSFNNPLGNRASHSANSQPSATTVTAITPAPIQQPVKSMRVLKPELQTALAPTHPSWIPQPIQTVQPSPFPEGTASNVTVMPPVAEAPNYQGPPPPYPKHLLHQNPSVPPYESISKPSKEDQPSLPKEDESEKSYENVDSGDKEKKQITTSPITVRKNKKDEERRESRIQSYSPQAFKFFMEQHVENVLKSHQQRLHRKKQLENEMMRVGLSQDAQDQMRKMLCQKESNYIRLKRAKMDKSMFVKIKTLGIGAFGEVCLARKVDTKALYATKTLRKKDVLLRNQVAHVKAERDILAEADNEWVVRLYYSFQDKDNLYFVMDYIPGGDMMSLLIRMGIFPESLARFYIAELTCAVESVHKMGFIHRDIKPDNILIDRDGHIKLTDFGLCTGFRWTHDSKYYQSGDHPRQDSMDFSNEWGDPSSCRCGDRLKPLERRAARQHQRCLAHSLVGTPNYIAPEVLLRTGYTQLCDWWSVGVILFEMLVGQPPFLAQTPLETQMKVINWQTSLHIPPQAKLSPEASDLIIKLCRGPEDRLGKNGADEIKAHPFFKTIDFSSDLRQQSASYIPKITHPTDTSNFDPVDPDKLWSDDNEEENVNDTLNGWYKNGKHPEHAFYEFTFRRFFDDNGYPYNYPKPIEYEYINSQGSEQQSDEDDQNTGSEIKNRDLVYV
Sequence of LATS1 (Q7L9L4 whole entry partner, looked up): as the sequence (Q7L9L4 whole entry partner, the tested form may be a part) above
Sequence of Human LATS1 kinase domain protein (O95835 whole entry, looked up, the tested form may be a part): as the sequence (O95835 whole entry, looked up) above
Sequence of Human LATS1 kinase domain protein (Q7L9L4 whole entry partner, looked up, the tested form may be a part): as the sequence (Q7L9L4 whole entry partner, the tested form may be a part) above

Regarding `CC(C)(Nc1nc(-c2ccncc2)nc2cnccc12)C(F)(F)F` [Example 58, 2-(pyridin-4-yl)-N-(1,1,1-trifluoro-2-methylpropan-2-yl)pyrido[3,4-d]pyrimidin-4-amine], the IC50 turned out to be 600 nM in test [1], 1 nM in test [2], 170 nM in test [5] and 185 nM in test [6]. Further, the half-maximal effective concentration (EC50) in test [3] is 302 nM; in test [4], 840 nM.
For the molecule `CC(C)(O)COCC(C)(C)Nc1nc(-c2ccncc2)nc2cnccc12` [Example 12, 2-methyl-1-(2-methyl-2-{[2-(pyridin-4-yl)pyrido[3,4-d]pyrimidin-4-yl]amino}propoxy)propan-2-ol], the “conjunctivalization (keratin-19) in transplanted eye” value in test [7] is listed as “prevented conjunctivalization by keratin-19-positive conjunctival cells”. In addition, in [7], the “corneal epithelium regeneration (keratin-12) in transplanted eye” value is “lead to regeneration of a keratin-12-positive corneal epithelium”. Besides, the IC50 in test [1] was 2900 nM; in test [2], 4 nM; in test [5], 15 nM; in test [6], 1150 nM. The same molecule returned an EC50 in [3] of 1750 nM. Also, in test [8], the “differentiation of expanded LSCs into corneal epithelium cells (keratin 12)” value was “can differentiate into corneal epithelium cells”.
With `C[C@H](N(C)c1nc(-c2ccncc2)nc2cnccc12)C(F)(F)F` [Example 48a, N-methyl-2-(pyridin-4-yl)-N-[(2S)-1,1,1-trifluoropropan-2-yl]pyrido[3,4-d]pyrimidin-4-amine], in test [4], a half-maximal response (EC50) required 260 nM.
Take `CC1CNCCN1c1cc(-c2ccncc2)nc2cnccc12` (stereo not drawn) [Example 303, 4-(2-methylpiperazin-1-yl)-2-(pyridin-4-yl)-1,7-naphthyridine]: the 50% inhibitory concentration (IC50) in test [9] was 10.2 nM; in [1] it was > 10000 nM. Also, the EC50 in [4] was > 20000 nM.

For orientation: IC50 means the point on the concentration scale where inhibition reaches its midpoint. Read a low IC50 as inhibition by little substance. In general, EC50 refers to the concentration giving half of the maximal effect. Read a high EC50 as a less potent agent.
